Reference: EP3293174A1, “CRYSTALLINE SALTS OF BETRIXABAN” (SANDOZ AG, priority 2016, dated 2018)
Where a name gives a salt, the structure may show the parent alone.

Tests used:
Type in all cases: physicochemical
[1] = Gravimetric moisture sorption/desorption (GMSD) isotherms; details: for hygroscopicity according to the GMSD isotherms: 25 ± 0.1°C, 0 to 95% RH; for water: when measured at 0 to 95% RH and 25 ± 0.1°C
Protocol: Gravimetric moisture sorption/desorption
Gravimetric moisture sorption/desorption (GMSD) isotherms were recorded with an SPSx-1µ moisture sorption analyzer (ProUmid, Ulm). The measurement cycle was started at ambient relative humidity (RH) of 30%. Relative humidity was then decreased to 5% RH in 5% steps, followed by a further decrease to 3% RH and to 0% RH. For this isotherm, as black filled square with a white x inside is used in the respective figures. Afterwards RH was increased from 0% to 95% RH in a sorption cycle and decreased to 0 % in a desorption cycle in 5% steps. Finally RH was increased to 40% RH in 5% steps. As to the isotherm obtained by the last step, a black filled square with a white star inside is used as symbol in the respective figures.
The time per step was set to a minimum of 2 hours and a maximum of 6 hours. If an equilibrium condition with a constant mass of ± 0.01 % within 1 hour was reached before the maximum time for all examined samples the sequential humidity step was applied before the maximum time of 6 hours. If no equilibrium was achieved the consecutive humidity step was applied after the maximum time of 6 hours. The temperature was 25 ± 0.1°C.

[2] = Determination of the moisture stability (climate chamber, PXRD analysis)
Protocol: Powder X-ray diffraction (PXRD) was performed with a PANalytical X'Pert PRO diffractometer equipped with a theta/theta coupled goniometer in transmission geometry, Cu-Kα1,2 radiation (wavelength 0.15419 nm) with a focusing mirror and a solid state PIXcel detector. Diffractograms were recorded at a tube voltage of 45 kV and a tube current of 40 mA, applying a stepsize of 0.013° 2-Theta with 40s per step (255 channels) in the angular range of 2° to 40° 2-Theta at ambient conditions. Determination of the moisture stability Moisture stability at accelerated stability conditions was performed in a Memmert constant climate chamber HPP110.

[3] = Determination of the solubility in water (solvent addition technique); details: 25 °C, thermodynamic from solid, in water at 25°C, estimated by solvent addition
Protocol: About 10 mg of crystalline betrixaban salt were weighed out into a vial. Water was added to the vial in aliquots of 500 µL and 200 µL until the salt was dissolved. In between the water additions the samples was sonicated for about 5 min, followed by shaking at 25°C for about 10 to 15 min.

[4] = listed as crystalline form B of betrixaban hydrobromide, hydrobromide
[5] = 8 weeks at 40°C and a relative humidity of 75%
[6] = listed as crystalline form A of betrixaban hydrochloride, hydrochloride

SMILES	hygroscopicity according to the GMSD isotherms [1, 4]	water [1, 4] [%]	PXRD pattern after storage compared with the initial pattern (moisture stability test) [2, 5]	hygroscopicity according to the GMSD isotherms [1, 6]	water [1, 6] [%]	solubility [3] [µg/mL]	PXRD pattern after storage compared with the initial pattern (moisture stability test) ([2]; 4 weeks at 40°C and a relative humidity of 75%)
COc1ccc(NC(=O)c2ccc(C(=N)N(C)C)cc2)c(C(=O)Nc2ccc(Cl)cn2)c1 [Betrixaban hydrobromide, form B, betrixaban hydrobromide]	moderately hygroscopic	≤ 1.9	essentially identical	–	–	–	–
COc1ccc(NC(=O)c2ccc(C(=N)N(C)C)cc2)c(C(=O)Nc2ccc(Cl)cn2)c1 [Betrixaban hydrochloride, form A, betrixaban hydrochloride]	–	–	essentially identical	non-hygroscopic	≤ 0.2	> 5000	–
COc1ccc(NC(=O)c2ccc(C(=N)N(C)C)cc2)c(C(=O)Nc2ccc(Cl)cn2)c1 [Betrixaban hydrochloride, form B, betrixaban hydrochloride]	–	–	–	–	–	–	essentially identical
